Residue numbers refer to the chain shown, from its start.
Experiments:
[1] = molecular target: T1, OX1R (Macaca mulatta, UniProt F7FE63); assay: Inhibition of orexin-peptide-A-induced calcium mobilization in CHO cells, rhesus OX1R; type: cell-based, rhesus monkey
T1 sequence (F7FE63 1-425): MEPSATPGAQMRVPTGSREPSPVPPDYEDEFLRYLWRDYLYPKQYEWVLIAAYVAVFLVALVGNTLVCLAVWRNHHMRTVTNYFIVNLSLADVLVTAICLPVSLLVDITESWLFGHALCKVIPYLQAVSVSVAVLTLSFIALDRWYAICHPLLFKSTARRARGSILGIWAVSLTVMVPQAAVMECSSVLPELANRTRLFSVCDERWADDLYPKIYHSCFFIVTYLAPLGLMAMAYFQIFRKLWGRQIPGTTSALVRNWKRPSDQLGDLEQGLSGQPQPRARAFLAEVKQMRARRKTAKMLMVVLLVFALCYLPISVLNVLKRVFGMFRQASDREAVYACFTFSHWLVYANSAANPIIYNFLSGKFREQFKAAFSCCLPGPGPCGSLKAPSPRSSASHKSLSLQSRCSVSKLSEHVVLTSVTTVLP
Procedure: (§1) MK-1064 was evaluated for its ability to inhibit orexin-peptide-A-induced calcium mobilization in CHO cell lines separately expressing OX1R and OX2R from mice, rats, rabbits, dogs, rhesus monkeys and humans.
(§2) Binding and functional blockade of OX1R and OX2R with MK-1064 relative to other 2-SORAs and the DORA, MK-6096, were assessed using membranes from Chinese hamster ovary (CHO)-K1 cells (American Type Tissue Collection, Manassas, VA) transfected to express human, mouse, rat, rabbit, dog, or rhesus monkey OX1R or OX2R receptors, as described previously. The kinetics of binding to human OX2R was assessed by radioligand displacement on CHO-K1 cells expressing the receptor. […] The ON rate analysis was performed by presoaking GF/B filters in 0.3% polyethyleneimine (Sigma) using a Skatron 12-well cell harvester and cold buffer at the indicated time points after addition. For OFF rate determination, binding reactions were allowed to proceed to equilibrium and terminated with 1000x [Kd] of unlabeled antagonist and filtered as above at pre-determined time points. Ultima Gold^TM (PerkinElmer 6013327) scintillation cocktail was added to each filter disc and counted on a PerkinElmer TriCarb 2910 scintillation counter. Data were analyzed using GraphPad® Prism v 6.04 (San Diego, CA, USA). The KON rate was determined according to the equation, KON = (KOBS − KOFF)/[ligand].

[2] = molecular target: T2, hOX1R (Homo sapiens, UniProt O43613); assay: Radio-ligand displacement binding, CHO-K1 membranes, human OX1R; settings: read-out: OX1R affinity (Ki)
T2 construct: expressed in transfected cells; host or cells: CHO-K1
T2 sequence (O43613 1-425): T1 sequence (F7FE63 1-425) with R12G, T15P, L58V, V102A, T174A, V175I, Q275E, P380L, V408I, L411I
Procedure: as §1, §2

[3] = molecular target: T3, OX2R (Macaca mulatta, UniProt F7CZM2); assay: Inhibition of orexin-peptide-A-induced calcium mobilization in CHO cells, rhesus OX2R; type: cell-based, rhesus monkey; settings: for fold OX2R selectivity (Kb): OX1R Kb / OX2R Kb
T3 sequence (F7CZM2 1-444): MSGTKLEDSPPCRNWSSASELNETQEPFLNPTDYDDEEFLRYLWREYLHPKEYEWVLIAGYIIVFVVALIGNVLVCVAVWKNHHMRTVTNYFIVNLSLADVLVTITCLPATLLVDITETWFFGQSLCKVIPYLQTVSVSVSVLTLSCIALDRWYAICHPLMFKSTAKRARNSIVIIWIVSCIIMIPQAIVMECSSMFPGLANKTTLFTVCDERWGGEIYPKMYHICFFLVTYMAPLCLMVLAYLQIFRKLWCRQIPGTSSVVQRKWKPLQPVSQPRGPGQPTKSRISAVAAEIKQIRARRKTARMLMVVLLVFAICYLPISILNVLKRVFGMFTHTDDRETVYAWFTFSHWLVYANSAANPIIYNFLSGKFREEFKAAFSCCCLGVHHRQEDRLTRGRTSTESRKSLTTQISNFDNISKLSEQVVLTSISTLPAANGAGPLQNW
Procedure: as §1, §2

[4] = molecular target: T4, OX1R (Canis lupus familiaris, UniProt A0A8I3RSX8); assay: Radio-ligand displacement binding, CHO-K1 membranes, dog OX1R; settings: read-out: OX1R affinity (Ki)
T4 sequence (A0A8I3RSX8 1-427): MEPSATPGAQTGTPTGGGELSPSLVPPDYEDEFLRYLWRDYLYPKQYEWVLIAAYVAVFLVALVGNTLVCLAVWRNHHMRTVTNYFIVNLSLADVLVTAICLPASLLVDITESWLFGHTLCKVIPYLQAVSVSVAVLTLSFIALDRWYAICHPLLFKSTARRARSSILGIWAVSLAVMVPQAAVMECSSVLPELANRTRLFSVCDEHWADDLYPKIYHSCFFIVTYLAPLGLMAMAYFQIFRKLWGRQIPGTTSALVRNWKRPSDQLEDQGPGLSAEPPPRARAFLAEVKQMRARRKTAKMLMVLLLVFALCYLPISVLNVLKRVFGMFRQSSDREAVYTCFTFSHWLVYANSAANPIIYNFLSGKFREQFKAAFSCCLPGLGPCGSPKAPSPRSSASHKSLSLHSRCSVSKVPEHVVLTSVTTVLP
Procedure: as §1, §2

[5] = molecular target: T5, OX2R (Homo sapiens, UniProt O43614); assay: hOX2R binding kinetics (3H-labelled ligand, ON and OFF rate); parameters: expressed in transfected cells; host or cells: CHO-K1; settings: for hOX2R binding kinetics KON: KON = (KOBS − KOFF)/[ligand]; for Kd / hOX2R binding kinetics KOFF / hOX2R binding kinetics T1/2OFF / hOX2R binding kinetics T1/2ON: room temperature, pH 7.4
T5 sequence (O43614 1-444): T3 sequence (F7CZM2 1-444) with L113V, S195T, M196V, I286M, V308I, T334A, D337E
Procedure: as §2

SMILES	Kb [1] [nM]	Ki [2] [nM]	Kb [3] [nM]	fold OX2R selectivity (Kb) [3]	Ki [4] [nM]	hOX2R binding kinetics KON [5] [min⁻¹]	Kd [5] [nM]	hOX2R binding kinetics KOFF [5] [mol⁻¹ min⁻¹]	hOX2R binding kinetics T1/2OFF [5] [min]	hOX2R binding kinetics T1/2ON [5] [min]
COc1ccc(CNC(=O)c2cc(-c3cncc(C)c3)ncc2-c2ccccc2)nc1OC [2-SORA-7]	3650	2800	18	[203] fold	1800	–	–	–	–	–
COc1ccc(CNC(=O)c2cc(-c3cc(Cl)cc(Cl)c3)cnc2-c2cccnc2)cc1OC [2-SORA-18]	141	100	23	[6] fold	86	–	–	–	–	–
COc1ccc(CNC(=O)c2cc(-c3cncc(Cl)c3)cnc2-c2ccccn2)nc1OC [MK-1064, 5″-chloro-N-[(5,6-dimethoxypyridin-2-yl)methyl]-2,2′:5′, 3″-terpyridine-3′-carbo xamide]	3370	1500	9	[375] fold	1300	1.19e+07	0.51	0.00697	110	21.1
COc1ccc(CNC(=O)c2cc(-c3cncc(C)c3)ncc2-c2nccs2)nc1OC [MK-3697]	21400	–	20	–	3100	–	1.16	–	54.4	24.3
Cc1ccc(-c2ncccn2)c(C(=O)N2C[C@H](COc3ccc(F)cn3)CC[C@H]2C)c1 [MK-6096]	21	2.5	14	[1.5] fold	2.7	9.19e+06	0.34	0.0188	118.3	62.9
